Patent US20130230459A1, “RADIOLABELLED mGluR2 PET LIGANDS” (Janssen Pharmaceuticals, Inc., priority 2010, published 2013)

Assays:
human mGluR2 receptor = target: T1, human mGluR2 receptor (Homo sapiens, UniProt Q14416); experiment: [35S]GTPγS binding assay, mGluR2 positive allosteric modulation (PAM); assay type: biochemical; details: in presence of ~EC20 glutamate, membranes of CHO cells with human mGluR2; for EC50: read-out: GTPγS-hmGluR2 PAM pEC50 (converted)
T1 construct: expressed in transfected cells; host or cells: CHO cells (membranes)
Description: The [^35S]GTPγS binding assay is a functional membrane-based assay used to study G-protein coupled receptor (GPCR) function whereby incorporation of a non-hydrolysable form of GTP, [^35S]GTPγS (guanosine 5′-triphosphate, labelled with […] ^35S), is measured.
CHO-cells were cultured to pre-confluence and stimulated with 5 mM butyrate for 24 h. Cells were then collected by scraping in PBS and cell suspension was centrifuged (10 min at 4000 RPM in benchtop centrifuge). Supernatant was discarded and pellet gently resuspended in 50 mM Tris-HCl, pH 7.4 by mixing with a vortex and pipetting up and down. The suspension was centrifuged at 16,000 RPM (Sorvall RC-5C plus rotor SS-34) for 10 minutes and the supernatant discarded. The pellet was homogenized in 5 mM Tris-HCl, pH 7.4 using an ultra-turrax homogenizer and centrifuged again (18,000 RPM, 20 min, 4° C.). The final pellet was resuspended in 50 mM Tris-HCl, pH 7.4 and stored at −80° C. in appropriate aliquots before use. Protein concentration was determined by the Bradford method (Bio-Rad, USA) with bovine serum albumin as standard.
Measurement of mGluR2 positive allosteric modulatory activity of test compounds was performed as follows. Test compounds and glutamate were diluted in assay buffer containing 10 mM HEPES acid, 10 mM HEPES salt, pH 7.4, 100 mM NaCl, 3 mM MgCl2 and 10 μM GDP. Human mGlu2 receptor-containing membranes were thawed on ice and diluted in assay buffer supplemented with 14 μg/ml saponin. Membranes were pre-incubated with compound alone or together with a predefined (˜EC20) concentration of glutamate (PAM assay) for 30 min at 30° C. After addition of [^35S]GTPγS (f.c. 0.1 nM), assay mixtures were shaken briefly and further incubated to allow [^35S]GTPγS incorporation on activation (30 minutes, 30° C.). Final assay mixtures contained 7 μg of membrane protein in 10 mM HEPES acid, 10 mM HEPES salt, pH 7.4, 100 mM NaCl, 3 mM MgCl2,10 μM GDP and 10 μg/ml saponin. Total reaction volume was 200 μl. Reactions were terminated by rapid filtration through Unifilter-96 GF/B plates (Perkin Elmer, Mass., USA) using a 96-well filtermate universal harvester. Filters were washed 6 times with ice-cold 10 mM NaH2PO4/10 mM Na2HPO4, pH 7.4. Filters were then air-dried, and 40 μl of liquid scintillation cocktail (Microscint-O) was added to each well. Membrane-bound radioactivity was counted in a Microplate Scintillation and Luminescence Counter from Perkin Elmer.
The concentration-response curves of representative compounds of the present invention—obtained in the presence of EC20 of mGluR2 agonist glutamate to determine positive allosteric modulation (PAM)—were generated using the Lexis software interface (developed at J&J). Data were calculated as % of the control glutamate response, defined as the maximal response that is generated upon addition of glutamate alone. Sigmoid concentration-response curves plotting these percentages versus the log concentration of the test compound were analyzed using non-linear regression analysis. The concentration producing half-maximal effect is then calculated as EC50.
The pEC50 values below were calculated as the −log EC50, when the EC50 is expressed in M.

[1] = test system: hmGluR1, hmGluR3, hmGluR4, hmGluR5, rmGluR6, hmGluR7 and hmGluR8; experiment: Selectivity for hmGluR2 in functional receptor assays (Ca2+ mobilization or [35S]GTPγS); assay type: cell-based, human; rat (mGluR6); details: hmGluR2 versus other mGluRs
Description: (§1) Selectivity of the compounds for hmGluR2 versus hmGluR1, hmGluR3, hmGluR4, hmGluR5, rmGluR6, hmGluR7 and hmGluR8 was determined using functional receptor assays (either measuring changes in intracellular Ca2+ mobilization or G protein activation via [^35S]GTPγS) with cells overexpressing the receptor of interest.

hmGluR3 = target: T2, hmGluR3 (Homo sapiens, UniProt Q14832); experiment: Selectivity functional receptor assay, mGluR3; assay type: cell-based; details: hmGluR2 versus mGluR3
T2 construct: expressed in transfected cells
Description: as §1

hmGluR8 = target: T3, hmGluR8 (Homo sapiens, UniProt O00222); experiment: Selectivity functional receptor assay, mGluR8; assay type: cell-based; details: hmGluR2 versus mGluR8
T3 construct: expressed in transfected cells
Description: as §1

hmGluR7 = target: T4, hmGluR7 (Homo sapiens, UniProt Q14831); experiment: Selectivity functional receptor assay, mGluR7; assay type: cell-based; details: hmGluR2 versus mGluR7
T4 construct: expressed in transfected cells
Description: as §1

T1 sequence (Q14416 19-872): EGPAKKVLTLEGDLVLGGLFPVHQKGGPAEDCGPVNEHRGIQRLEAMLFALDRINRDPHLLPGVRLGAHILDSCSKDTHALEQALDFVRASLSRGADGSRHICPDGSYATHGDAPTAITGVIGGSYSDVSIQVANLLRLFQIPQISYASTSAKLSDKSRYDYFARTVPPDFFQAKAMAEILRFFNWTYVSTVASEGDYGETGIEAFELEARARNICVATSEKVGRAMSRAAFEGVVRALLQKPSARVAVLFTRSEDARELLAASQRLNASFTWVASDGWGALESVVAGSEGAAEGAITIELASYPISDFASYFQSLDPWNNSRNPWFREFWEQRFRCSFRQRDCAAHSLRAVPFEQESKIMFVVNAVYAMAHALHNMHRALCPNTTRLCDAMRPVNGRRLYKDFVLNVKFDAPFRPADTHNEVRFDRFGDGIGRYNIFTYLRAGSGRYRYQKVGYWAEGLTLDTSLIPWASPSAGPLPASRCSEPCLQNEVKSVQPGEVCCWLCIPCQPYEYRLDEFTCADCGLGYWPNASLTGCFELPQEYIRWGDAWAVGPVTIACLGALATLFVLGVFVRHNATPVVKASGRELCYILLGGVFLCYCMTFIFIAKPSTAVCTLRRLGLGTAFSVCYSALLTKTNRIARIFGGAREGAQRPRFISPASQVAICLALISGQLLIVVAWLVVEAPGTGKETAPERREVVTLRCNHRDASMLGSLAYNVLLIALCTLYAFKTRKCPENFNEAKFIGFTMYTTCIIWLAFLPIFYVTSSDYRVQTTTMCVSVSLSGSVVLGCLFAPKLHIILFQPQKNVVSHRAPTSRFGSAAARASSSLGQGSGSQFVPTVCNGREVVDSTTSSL
T3 sequence (O00222 34-908): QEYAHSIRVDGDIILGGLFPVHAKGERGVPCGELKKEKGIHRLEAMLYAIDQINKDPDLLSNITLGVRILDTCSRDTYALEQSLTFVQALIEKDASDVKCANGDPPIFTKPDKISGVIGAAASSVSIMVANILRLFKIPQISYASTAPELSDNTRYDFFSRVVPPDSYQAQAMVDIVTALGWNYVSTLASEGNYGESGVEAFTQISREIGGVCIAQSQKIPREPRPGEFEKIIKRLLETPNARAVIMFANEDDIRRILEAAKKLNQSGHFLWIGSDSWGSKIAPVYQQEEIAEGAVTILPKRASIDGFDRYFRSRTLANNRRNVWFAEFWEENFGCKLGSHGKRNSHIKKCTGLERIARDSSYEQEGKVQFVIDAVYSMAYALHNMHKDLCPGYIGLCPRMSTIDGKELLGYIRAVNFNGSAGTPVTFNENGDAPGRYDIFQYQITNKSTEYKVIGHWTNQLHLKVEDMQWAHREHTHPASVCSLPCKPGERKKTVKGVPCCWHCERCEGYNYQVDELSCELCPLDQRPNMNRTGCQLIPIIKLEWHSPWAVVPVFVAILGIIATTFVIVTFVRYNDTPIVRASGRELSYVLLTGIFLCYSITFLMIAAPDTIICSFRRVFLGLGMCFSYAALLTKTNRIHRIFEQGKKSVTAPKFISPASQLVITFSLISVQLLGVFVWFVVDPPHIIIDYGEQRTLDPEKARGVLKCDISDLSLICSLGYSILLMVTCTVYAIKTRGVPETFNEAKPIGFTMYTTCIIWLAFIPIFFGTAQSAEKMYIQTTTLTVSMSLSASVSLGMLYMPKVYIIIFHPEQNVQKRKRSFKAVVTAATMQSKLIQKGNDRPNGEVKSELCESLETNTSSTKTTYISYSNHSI
T2 sequence (Q14832 23-879): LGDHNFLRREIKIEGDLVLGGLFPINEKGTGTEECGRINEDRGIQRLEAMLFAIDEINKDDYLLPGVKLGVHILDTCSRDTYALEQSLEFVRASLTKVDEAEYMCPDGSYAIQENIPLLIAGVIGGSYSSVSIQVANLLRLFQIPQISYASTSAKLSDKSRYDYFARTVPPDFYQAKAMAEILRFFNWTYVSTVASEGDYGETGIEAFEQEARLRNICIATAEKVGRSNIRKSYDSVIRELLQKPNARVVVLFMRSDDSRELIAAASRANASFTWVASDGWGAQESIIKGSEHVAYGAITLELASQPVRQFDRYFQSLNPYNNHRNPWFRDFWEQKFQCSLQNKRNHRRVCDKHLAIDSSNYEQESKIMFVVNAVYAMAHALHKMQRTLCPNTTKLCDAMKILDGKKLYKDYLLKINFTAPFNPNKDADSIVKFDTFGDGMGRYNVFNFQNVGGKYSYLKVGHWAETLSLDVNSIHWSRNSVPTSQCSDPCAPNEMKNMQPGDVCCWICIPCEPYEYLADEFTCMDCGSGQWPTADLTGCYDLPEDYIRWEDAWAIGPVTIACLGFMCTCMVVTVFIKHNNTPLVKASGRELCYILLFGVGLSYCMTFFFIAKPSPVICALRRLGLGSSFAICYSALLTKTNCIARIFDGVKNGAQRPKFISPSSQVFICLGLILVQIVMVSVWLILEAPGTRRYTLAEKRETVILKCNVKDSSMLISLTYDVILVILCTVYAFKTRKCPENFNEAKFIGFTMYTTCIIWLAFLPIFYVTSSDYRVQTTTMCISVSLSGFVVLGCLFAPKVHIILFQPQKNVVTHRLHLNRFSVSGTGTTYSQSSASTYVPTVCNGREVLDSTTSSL
T4 sequence (Q14831 35-915): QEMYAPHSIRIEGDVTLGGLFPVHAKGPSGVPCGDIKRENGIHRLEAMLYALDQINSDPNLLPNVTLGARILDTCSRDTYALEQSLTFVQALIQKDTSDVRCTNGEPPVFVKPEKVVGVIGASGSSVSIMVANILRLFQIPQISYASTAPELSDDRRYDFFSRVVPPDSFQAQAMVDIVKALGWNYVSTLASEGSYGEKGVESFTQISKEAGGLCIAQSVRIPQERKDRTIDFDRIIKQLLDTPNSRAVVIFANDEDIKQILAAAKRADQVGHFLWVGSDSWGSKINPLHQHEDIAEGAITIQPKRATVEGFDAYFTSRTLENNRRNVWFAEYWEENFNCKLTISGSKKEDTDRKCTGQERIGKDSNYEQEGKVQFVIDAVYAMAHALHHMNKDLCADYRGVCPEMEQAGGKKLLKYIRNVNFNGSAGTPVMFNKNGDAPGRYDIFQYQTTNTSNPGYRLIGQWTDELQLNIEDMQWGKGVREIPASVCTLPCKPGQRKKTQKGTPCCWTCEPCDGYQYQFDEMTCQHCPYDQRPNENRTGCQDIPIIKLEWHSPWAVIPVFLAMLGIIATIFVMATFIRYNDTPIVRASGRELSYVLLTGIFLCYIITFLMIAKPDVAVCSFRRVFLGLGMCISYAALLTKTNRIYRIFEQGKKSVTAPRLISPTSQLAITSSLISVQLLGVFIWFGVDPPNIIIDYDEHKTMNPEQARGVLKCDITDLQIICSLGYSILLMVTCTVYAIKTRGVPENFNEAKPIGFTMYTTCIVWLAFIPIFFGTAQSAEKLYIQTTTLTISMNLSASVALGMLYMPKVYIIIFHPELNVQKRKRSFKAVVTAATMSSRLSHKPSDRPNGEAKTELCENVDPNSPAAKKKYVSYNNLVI

Row | SMILES | melting point [°C] | GTPγS-hmGluR2 PAM pEC50 (human mGluR2 receptor) | Selectivity over mGluR3 (hmGluR3) | Selectivity over mGluR8 (hmGluR8) | Selectivity over mGluR1, mGluR3-mGluR8 [1] | EC50 (human mGluR2 receptor) [nM] | Selectivity over mGluR7 (hmGluR7)
1 | COc1ccc(F)cc1C1CCN(c2ccn3c(CC(F)(F)F)nnc3c2Cl)CC1 [compound 1] | 259 | 7.98 |  |  | >1,000 fold |  | 
2 | COc1c(F)ccc(F)c1C1CCN(c2ccn3c(CC4CC4)nnc3c2Cl)CC1 [compound 2] | 163.2 |  |  |  | >1,000 fold | 7.41 | 
3 | COc1c(F)ccc(F)c1C1CCN(c2ccn3c(CC4CC4)nnc3c2C(F)(F)F)CC1 [compound 3] | 180.7 | 8.39 |  |  | >1,000 fold |  | 
4 | COc1cccc(F)c1C1CCN(c2ccn3c(CC(F)(F)F)nnc3c2Cl)CC1 [compound 5] |  |  |  |  | ≧1,000 fold | 3.89 | 
5 | COc1cccc(F)c1C1CCN(c2ccn3c(CC4CC4)nnc3c2Cl)CC1 [compound 6] |  | 8.22 | > 300 fold | mGluR7 and mGluR8 for which selectivity >500 fold | > 1,000 fold |  | mGluR7 and mGluR8 for which selectivity >500 fold
6 | COc1cc(F)cc(F)c1C1CCN(c2ccn3c(CC4CC4)nnc3c2Cl)CC1 [compound 7] | 162.2 | 8.16 | ≧500 fold | ≧500 fold | >1,000 fold, except for mGluR3 and mGluR8 |  | 
7 | COc1c(C2CCN(c3ccn4c(CC5CC5)nnc4c3Cl)CC2)ccc(F)c1F [compound 8] | 173.5 |  | ≥ 400 fold |  | > 1,000 fold | 26.3 | 
8 | COc1ccc(F)c(F)c1C1CCN(c2ccn3c(CC4CC4)nnc3c2Cl)CC1 [compound 10] | 208.5 | 8.03 | which selectivity ≧500 fold | which selectivity ≧500 fold | >1,000 fold, except for mGluR3 and mGluR8 for |  | 
9 | COc1c(F)cccc1C1CCN(c2ccn3c(CC4CC4)nnc3c2C(F)(F)F)CC1 [compound 12] | 195.7 |  | ≥ 200 fold |  | ≥ 1,000 fold | 11.2 | 

Continued, in another order:

Row | melting point [°C] | GTPγS-hmGluR2 PAM pEC50 (human mGluR2 receptor) | Selectivity over mGluR3 (hmGluR3) | Selectivity over mGluR8 (hmGluR8) | SMILES | Selectivity over mGluR1, mGluR3-mGluR8 [1] | EC50 (human mGluR2 receptor) [nM] | Selectivity over mGluR7 (hmGluR7)
10 | > 300 |  | ≥ 40 fold |  | COc1ccc(F)cc1C1CCN(c2ccn3c(CC4CC4)nnc3c2Cl)CC1 [compound 4] | > 500 fold | 9.33 | 
11 | 168.3 | 7.43 |  |  | COc1c(F)cccc1C1CCN(c2ccn3c(CC4CC4)nnc3c2Cl)CC1 [compound 9] | >500 fold |  | 
12 |  | 7.7 | ~20 fold |  | COc1ccccc1C1CCN(c2ccn3c(CC4CC4)nnc3c2Cl)CC1 [compound 11] | >100, except for mGluR3 for which selectivity fold |  | 
